ChEMBL document CHEMBL5550146, “Design, synthesis, and biological evaluation of novel sesquiterpene lactone derivatives as PKM2 activators with potent anti-ulcerative colitis activities” (Eur J Med Chem, 2024)
Calls of active or inactive are those of the source. No cut-off for these calls is given here.

What was measured:
Th17 [1] = assay: Inhibition of C57BL/6 mouse Th17 cell differentiation from CD4+ T cells assessed as reduction in PFK1 protein level; format: functional, cell-based
[2] = Inhibition of C57BL/6 mouse Regulatory T cells differentiation from CD4+ T cells assessed as frequency of CD4+ Foxp3+ Treg cells at 0.1 uM incubated for 96 hrs by flow cytometric analysis ( Rvb = 24.48 %); format: functional, Regulatory T cell; design: scale not given: the % may be the effect or the level left
Regulatory T cell [3] = assay: Inhibition of C57BL/6 mouse Regulatory T cells differentiation from CD4+ T cells assessed as change in Foxp3 mRNA expression at 0.1 to 1 uM incubated for 96 hrs by qPCR analysis; format: functional, cell-based; details: dose 0.1-1 µM
Th17 [4] = assay: Inhibition of C57BL/6 mouse Th17 cell differentiation from CD4+ T cells assessed as reduction in IL-21 mRNA expression at 0.1 uM incubated for 96 hrs by qPCR analysis; format: functional, cell-based
[5] = Inhibition of C57BL/6 mouse Regulatory T cells differentiation from CD4+ T cells assessed as frequency of CD4+ Foxp3+ Treg cells at 1 uM incubated for 96 hrs by flow cytometric analysis ( Rvb = 24.48 %); format: functional, Regulatory T cell; design: scale not given: the % may be the effect or the level left
Mus musculus [6] = assay: Antiinflammatory activity in DSS-induced colitis female C57BL/6 mouse model assessed as improvement in inflammatory cell infiltration at 5 to 10 mg/kg, ip administered for 12 days with subsequent treatment of DSS for 9 days followed by drinking water for 3 days by H and E staining based analysis; format: functional, organism-based; details: dose 5-10 mg/kg, time 12.0 day
Th17 [7] = assay: Inhibition of C57BL/6 mouse Th17 cell differentiation from CD4+ T cells assessed as reduction in Glut1 protein level; format: functional, cell-based
Mus musculus [8] = assay: Antiinflammatory activity in DSS-induced colitis female C57BL/6 mouse model assessed as reduction in shortening of colon length at 5 mg/kg, ip administered for 12 days with subsequent treatment of DSS for 9 days followed by drinking water for 3 days; format: functional, organism-based; details: time 12.0 day
Th17 [9] = assay: Inhibition of C57BL/6 mouse Th17 cell differentiation from CD4+ T cells assessed as reduction in HK2 mRNA level; format: functional, cell-based
Pyruvate kinase PKM [10] = biological target: T1, Pyruvate kinase PKM (Homo sapiens, UniProt P14618); assay: Covalent binding affinity to Cys423 residue of recombinant human PKM2 at 50 uM incubated for 60 mins by LC-MS/MS analysis; details: filed as activator
Target sequence in this assay (P14618 2-531 limits assumed): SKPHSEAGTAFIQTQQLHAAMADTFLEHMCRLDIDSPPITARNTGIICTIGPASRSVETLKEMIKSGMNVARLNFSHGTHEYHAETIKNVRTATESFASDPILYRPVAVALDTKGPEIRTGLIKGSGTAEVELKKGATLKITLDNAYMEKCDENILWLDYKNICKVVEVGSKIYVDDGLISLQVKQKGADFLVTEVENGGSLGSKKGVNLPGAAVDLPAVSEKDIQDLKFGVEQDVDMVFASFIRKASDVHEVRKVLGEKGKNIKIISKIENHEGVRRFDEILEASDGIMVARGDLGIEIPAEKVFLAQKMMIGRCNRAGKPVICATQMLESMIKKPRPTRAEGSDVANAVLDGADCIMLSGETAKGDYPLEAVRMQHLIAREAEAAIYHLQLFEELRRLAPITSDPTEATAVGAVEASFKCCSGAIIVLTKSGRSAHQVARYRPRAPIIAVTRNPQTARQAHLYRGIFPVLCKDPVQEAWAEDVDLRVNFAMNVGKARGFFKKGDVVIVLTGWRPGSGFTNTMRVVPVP

Th17 [11] = assay: Inhibition of C57BL/6 mouse Th17 cell differentiation from CD4+ T cells assessed as reduction in Glut1 mRNA level; format: functional, cell-based
Pyruvate kinase PKM [12] = biological target: T1, Pyruvate kinase PKM; assay: Activation of recombinant human PKM2 incubated for 40 mins by pyruvate kinase assay
Target sequence in this assay (P14618 whole entry): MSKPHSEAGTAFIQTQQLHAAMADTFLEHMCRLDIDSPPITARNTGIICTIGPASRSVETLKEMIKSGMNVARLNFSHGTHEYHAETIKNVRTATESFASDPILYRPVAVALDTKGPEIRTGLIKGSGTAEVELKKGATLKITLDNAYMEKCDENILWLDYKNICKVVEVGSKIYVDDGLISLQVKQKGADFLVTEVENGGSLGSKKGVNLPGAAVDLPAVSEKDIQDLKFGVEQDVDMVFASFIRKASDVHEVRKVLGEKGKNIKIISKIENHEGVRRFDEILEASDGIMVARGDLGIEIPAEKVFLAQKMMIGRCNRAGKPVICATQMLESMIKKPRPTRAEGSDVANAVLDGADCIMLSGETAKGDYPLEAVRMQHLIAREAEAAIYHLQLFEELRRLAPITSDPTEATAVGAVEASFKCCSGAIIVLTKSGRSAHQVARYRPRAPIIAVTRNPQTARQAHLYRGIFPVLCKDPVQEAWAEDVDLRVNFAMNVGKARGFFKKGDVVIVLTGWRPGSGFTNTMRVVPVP

Pyruvate kinase PKM [13] = biological target: T1, Pyruvate kinase PKM; assay: Binding affinity to PKM2 (unknown origin) assessed as dissociation rate constant (Kd) at 3.125 to 50 uM by SPR analysis
Target sequence in this assay (P14618 whole entry): as above

Th17 [14] = assay: Inhibition of C57BL/6 mouse Th17 cell differentiation from CD4+ T cells assessed as reduction in […] mRNA expression at 0.1 uM incubated for 96 hrs by qPCR analysis; format: functional, cell-based
Mus musculus [15] = assay: Antiinflammatory activity in DSS-induced colitis female C57BL/6 mouse model assessed as reduction in body weight loss at 5 to 10 mg/kg, ip administered for 12 days with subsequent treatment of DSS for 9 days followed by drinking water for 3 days; format: functional, organism-based; details: dose 5-10 mg/kg, time 12.0 day
[16] = biological target: Pyruvate kinase PKM (Mus musculus) (UniProt P52480); assay: Inhibition of PKM2 dimer nuclear translocation in C57BL/6 mouse Th17 cells differentiated from CD4+ T cells assessed as decrease in PKM2 expression in nucleus at 0.1 to 1 uM incubated for 48 hrs by Western blot analysis; format: cell-based; details: dose 0.1-1 µM
Pyruvate kinase PKM (Mus musculus), sequence (P52480 whole entry): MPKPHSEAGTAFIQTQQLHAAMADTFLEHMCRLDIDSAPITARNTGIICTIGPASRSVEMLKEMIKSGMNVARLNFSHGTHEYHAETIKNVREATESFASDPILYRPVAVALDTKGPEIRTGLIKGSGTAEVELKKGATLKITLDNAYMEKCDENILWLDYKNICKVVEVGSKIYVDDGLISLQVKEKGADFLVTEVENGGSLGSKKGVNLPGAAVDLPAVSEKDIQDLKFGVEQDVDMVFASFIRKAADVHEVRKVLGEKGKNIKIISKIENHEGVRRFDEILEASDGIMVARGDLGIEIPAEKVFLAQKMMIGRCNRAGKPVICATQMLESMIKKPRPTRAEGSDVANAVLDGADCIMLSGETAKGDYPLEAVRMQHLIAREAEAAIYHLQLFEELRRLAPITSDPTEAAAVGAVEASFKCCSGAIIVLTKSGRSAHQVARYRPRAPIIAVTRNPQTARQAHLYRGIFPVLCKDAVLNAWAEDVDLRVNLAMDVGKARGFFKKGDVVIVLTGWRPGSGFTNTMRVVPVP

Pyruvate kinase PKM [17] = biological target: T1, Pyruvate kinase PKM; assay: Binding affinity to PKM2 (unknown origin) assessed as dissociation constant by SPR analysis
Target sequence in this assay (P14618 whole entry): as the sequence (P14618 whole entry) above

Pyruvate kinase PKM [18] = biological target: T1, Pyruvate kinase PKM; assay: Binding affinity to PKM2 (unknown origin) assessed as association rate constant (Ka) at 3.125 to 50 uM by SPR analysis; details: filed as activator, dose 3.125-50 µM
Target sequence in this assay (P14618 2-531 limits assumed): as the sequence (P14618 2-531 limits assumed) above

[19] = Inhibition of C57BL/6 mouse Th17 cells differentiation from CD4+ T cells assessed as frequency of CD4+ IL-17A+ Th17 cells at 0.1 uM incubated for 96 hrs by flow cytometric analysis (reference value: 23.52 %); format: functional; design: scale not given: the % may be the effect or the level left
Th17 [20] = assay: Inhibition of C57BL/6 mouse Th17 cell differentiation from CD4+ T cells assessed as reduction in lactate production at […] to 1 uM incubated for 48 hrs by colorimetric analysis; format: functional, cell-based
[21] = Inhibition of C57BL/6 mouse Th17 cells differentiation from CD4+ T cells assessed as frequency of CD4+ IL-17A+ Th17 cells at 1 uM incubated for 96 hrs by flow cytometric analysis (reference value: 23.52 %); format: functional; design: scale not given: the % may be the effect or the level left
[22] = biological target: Pyruvate kinase PKM (Mus musculus) (UniProt P52480); assay: Activation of PKM2 in C57BL/6 mouse Th17 cells differentiated from CD4+ T cells assessed as induction of PKM2 tetramer formation at 0.1 to 1 uM incubated for 48 hrs by immunoblotting based protein cross linking assay; format: cell-based; details: filed as activator, dose 0.1-1 µM
Mus musculus [23] = assay: Antiinflammatory activity in DSS-induced colitis female C57BL/6 mouse model assessed as improvement in goblet cell loss at 5 to 10 mg/kg, ip administered for 12 days with subsequent treatment of DSS for 9 days followed by drinking water for 3 days by H and E staining based analysis; format: functional, organism-based; details: dose 5-10 mg/kg, time 12.0 day
Th17 [24] = assay: Inhibition of C57BL/6 mouse Th17 cell differentiation from CD4+ T cells assessed as reduction in RORC mRNA expression at 0.1 uM incubated for 96 hrs by qPCR analysis; format: functional, cell-based
Th17 [25] = assay: Inhibition of C57BL/6 mouse Th17 cell differentiation from CD4+ T cells assessed as reduction in PFK1 mRNA level; format: functional, cell-based
Mus musculus [26] = assay: Antiinflammatory activity in DSS-induced colitis female C57BL/6 mouse model assessed as improvement in crypt deformation at 5 to 10 mg/kg, ip administered for 12 days with subsequent treatment of DSS for 9 days followed by drinking water for 3 days by H and E staining based analysis; format: functional, organism-based; details: dose 5-10 mg/kg, time 12.0 day
Th17 [27] = assay: Effect on PKM2 expression in cytoplasm of C57BL/6 mouse Th17 cells differentiated from CD4+ T cells at 0.1 to 1 uM incubated for 48 hrs by Western blot analysis; format: functional, cell-based; details: dose 0.1-1 µM
[28] = Inhibition of C57BL/6 mouse Regulatory T cells differentiation from CD4+ T cells assessed as frequency of CD4+ Foxp3+ Treg cells at 0.3 uM incubated for 96 hrs by flow cytometric analysis ( Rvb = 24.48 %); format: functional, Regulatory T cell; design: scale not given: the % may be the effect or the level left
[29] = biological target: Pyruvate kinase PKM (Mus musculus) (UniProt P52480); assay: Induction of thermal stabilization of PKM2 in C57BL/6 mouse CD4+ T cells at 1 uM incubated for 4 hrs at 58 to 64 degreeC by CETSA; format: cell-based; details: CD4+ T cell
T-cell [30] = assay: Antiproliferative activity against concanavalin A-stimulated C57BL/6 mouse T cells measured after 48 hrs by CCK8 assay; format: functional, cell-based; details: C57BL/6, T-cell
Th17 [31] = assay: Inhibition of C57BL/6 mouse Th17 cell differentiation from CD4+ T cells assessed as reduction in IL-17a mRNA expression at 0.1 uM incubated for 96 hrs by qPCR analysis; format: functional, cell-based
T-cell [32] = assay: Potency index, ratio of Parthenolide IC50 to test compound IC50 for antiproliferative activity against concanavalin A-stimulated C57BL/6 mouse T cells measured after 48 hrs by CCK8 assay; format: functional
Th17 [33] = assay: Downregulation of total PKM2 expression in C57BL/6 mouse Th17 cells differentiated from CD4+ T cells at 0.1 to 1 uM incubated for 48 hrs by Western blot analysis; format: functional, cell-based; details: dose 0.1-1 µM
[34] = Inhibition of C57BL/6 mouse Th17 cells differentiation from CD4+ T cells assessed as frequency of CD4+ IL-17A+ Th17 cells at 0.3 uM incubated for 96 hrs by flow cytometric analysis (reference value: 23.52 %); format: functional; design: scale not given: the % may be the effect or the level left
Th17 [35] = assay: Inhibition of C57BL/6 mouse Th17 cell differentiation from CD4+ T cells assessed as decrease in glucose consumption incubated for 48 hrs by colorimetric analysis; format: functional, cell-based; details: dose 1.0 µM
Regulatory T cell [36] = assay: Inhibition of C57BL/6 mouse Regulatory T cells differentiation from CD4+ T cells assessed as change in IL-10 mRNA expression at 0.1 to 1 uM incubated for 96 hrs by qPCR analysis; format: functional, cell-based; details: dose 0.1-1 µM
Mus musculus [37] = assay: Antiinflammatory activity in DSS-induced colitis female C57BL/6 mouse model assessed as reduction in disease activity index score at 5 to 10 mg/kg, ip administered for 12 days with subsequent treatment of DSS for 9 days followed by drinking water for 3 days; format: functional, organism-based; details: dose 5-10 mg/kg, time 12.0 day
Th17 [38] = assay: Inhibition of C57BL/6 mouse Th17 cell differentiation from CD4+ T cells assessed as reduction in HK2 protein level; format: functional, cell-based

Q: For `C=C1C(=O)O[C@H]2[C@H]1CC/C(COC(F)(F)F)=C\CC[C@@]1(C)O[C@@H]21`, which inhibition (Th17 [1]) is on record?
A: The inhibition was “Active”.

Q: And the Activity [2]?
A: Its Activity is 23.97%.

Q: What about the inhibition (Regulatory T cell [3]) of the same compound?
A: Its inhibition is “inactive”.

Q: What about the inhibition (Th17 [4]) of the same compound?
A: Its inhibition is “Active”.

Q: And the Activity [5]?
A: The Activity was 25.4%.

Q: What about the Activity (Mus musculus [6]) of the same compound?
A: The Activity was “Active”.

Q: What about the inhibition (Th17 [7]) of the same compound?
A: Its inhibition is “Active”.

Q: What about the Activity (Mus musculus [8]) of the same compound?
A: Its Activity is “Active”.

Q: What about the inhibition (Th17 [9]) of the same compound?
A: The inhibition was “Active”.

Q: What about the Activity (Pyruvate kinase PKM [10]) of the same compound?
A: The Activity was “Active”.

Q: And the inhibition (Th17 [11])?
A: Its inhibition is “Active”.

Q: What about the AC50 (Pyruvate kinase PKM [12]) of the same compound?
A: The AC50 was 144 nM.

Q: What about the Kd (Pyruvate kinase PKM [13]) of the same compound?
A: Its Kd is 0.028 s⁻¹.

Q: And the inhibition (Th17 [14])?
A: The inhibition was “Active”.

Q: What about the Activity (Mus musculus [15]) of the same compound?
A: Its Activity is “Active”.

Q: What about the inhibition [16] of the same compound?
A: Its inhibition is “Active”.

Q: What about the Kd (Pyruvate kinase PKM [17]) of the same compound?
A: The Kd was 2480 nM.

Q: What about the Ka (Pyruvate kinase PKM [18]) of the same compound?
A: The Ka was 1.12 10^4/Ms.

Q: And the Activity [19]?
A: The Activity was 17.11%.

Q: And the inhibition (Th17 [20])?
A: The inhibition was “Active”.

Q: What about the Activity [21] of the same compound?
A: The Activity was 9.84%.

Q: And the Activity [22]?
A: Its Activity is “Active”.

Q: And the Activity (Mus musculus [23])?
A: The Activity was “Active”.

Q: And the inhibition (Th17 [24])?
A: The inhibition was “Active”.

Q: And the inhibition (Th17 [25])?
A: The inhibition was “Active”.

Q: And the Activity (Mus musculus [26])?
A: The Activity was “Active”.

Q: And the Activity (Th17 [27])?
A: Its Activity is “inactive”.

Q: And the Activity [28]?
A: The Activity was 24.84%.

Q: What about the Activity [29] of the same compound?
A: Its Activity is “Active”.

Q: What about the IC50 (T-cell [30]) of the same compound?
A: The IC50 was 430 nM.

Q: And the inhibition (Th17 [31])?
A: The inhibition was “Active”.

Q: What about the “Ratio IC50” value (T-cell [32]) of the same compound?
A: Its value is 5.

Q: And the Activity (Th17 [33])?
A: Its Activity is “Active”.

Q: What about the Activity [34] of the same compound?
A: Its Activity is 14.67%.

Q: What about the inhibition (Th17 [35]) of the same compound?
A: The inhibition was “Dose-Dependent Effect”.

Q: What about the inhibition (Regulatory T cell [36]) of the same compound?
A: Its inhibition is “inactive”.

Q: What about the Activity (Mus musculus [37]) of the same compound?
A: The Activity was “Active”.

Q: What about the inhibition (Th17 [38]) of the same compound?
A: The inhibition was “Active”.
